Experimental data taken from patent publication US20040044006A1, “Methods of use of quinolone compounds against pneumococcal and haemophilus bacteria” (priority 1999, published 2004).
In brackets after ≈: the same amount, converted by molar mass. Like-named read-outs stand apart in the source and are kept apart here.

How the values were obtained:
[1] = test system: quinolone susceptible pneumococci (ciprofloxacin MICs ≦4.0 μg/ml); assay: Agar dilution MICs of 207 quinolone susceptible pneumococcal strains; format: cell-based, Streptococcus pneumoniae; settings: Streptococcus pneumoniae, agar dilution; for MIC90: read-out: MIC90; for MIC: read-out: MIC range
Experimental: All susceptible, and some intermediate and resistant strains, were recent U.S. isolates. The remainder of intermediate and resistant strains were isolated in South Africa, Spain, France, Central and Eastern Europe, and Korea. […] Additionally these strains were tested for mutations in parC, gyrA, parE, and gyrB (Pan, et al., Antimicrob. Agents Chemother. 40:2321-2326, 1996) and for efflux mechanism (Brenwald, et al., Antimicrob. Agents Chemother. 42:2032-2035, 1998). For time-kill studies, 4 penicillin susceptible, 4 intermediate and 4 resistant strains (2 quinolone resistant) were tested, while for PAE studies 5 quinolone susceptible and 1 resistant strains were studied.
(§1) Agar dilution methodology was performed on 234 strains as described previously (M. R. Jacobs, Clin. Infect. Dis. 15:119-127, 1992; Jacobs, et al., Rev. Med. Microbiol. 6:77-93, 1995), using Mueller-Hinton agar (BBL Microbiology Systems, Cockeysville, Md.) supplemented with 5% sheep blood. Broth MICs for 12 strains tested by time-kill and 6 tested by PAE were performed according to NCCLS recommendations (Methods for Dilution Antimicrobial Susceptibility Tests for Bacteria that Grow Aerobically, 3rd Edition, NCCLS, Villanova, Pa.) using cation-adjusted Mueller-Hinton broth with 5% lysed defibrinated horse blood. Standard quality control strains, including Streptococcus pneumoniae ATCC 49619, were included in each run of agar and broth dilution MICs.

pneumococcal strains = assay: Microbroth dilution MICs of strains tested by time-kill and PAE; format: cell-based; settings: Streptococcus pneumoniae, read-out: Microdilution MIC
Experimental: as §1

[2] = test system: quinolone resistant pneumococci; assay: Determination of efflux mechanism: MICs in the presence and absence of reserpine; format: cell-based, Streptococcus pneumoniae; settings: for number of strains with lower MICs in the presence of reserpine: of 28 quinolone resistant strains, 10 μg/ml reserpine
Experimental: MICs were determined in the presence and absence of 10 μg/ml of reserpine (Sigma Chemicals, St. Louis, Mo.) as known in the art.
MICs were determined in the presence and absence of […] of reserpine (Sigma Chemicals, St. Louis, Mo., USA) as described previously (Brenwald, et al., Antimicrob. Agents Chemother. 42:2039-2035, 1998 and Davies, et al., Antimicrob. Agents Chemother. 43:1177-1182S, 1999).

[3] = test system: quinolone-resistant Haemophilus influenzae strains; assay: Microdilution MIC determination in HTM for quinolone-resistant Haemophilus influenzae strains; format: cell-based; settings: 9 quinolone-resistant Haemophilus influenzae strains
Experimental: Inocula were prepared from chocolate agar plates incubated for a full 24 hours by the direct colony suspension method as follows: In a tube of Mueller-Hinton broth (Difco), an organism suspension was made to a density of a 0.5 McFarland standard (1×10^8 CFU/ml). The latter inoculum was diluted in sterile saline such that final organisms suspensions in trays yielded colony counts of 3-8×10^5 CFU/ml. Frozen microdilution trays were obtained from MicroMedia Systems, Inc. (Cleveland, Ohio, USA). Each tray contained all antimicrobials prepared in freshly made HTM. Wells were inoculated with 100 μl suspensions and incubated in ambient air at 35° C. for 20-24 hours. The lowest drug concentration showing no growth was read as the MIC. Standard quality control strains, including H. influenzae ATCC 49766, H. influenzae ATCC 49247, Staphylococcus aureus ATCC 29213 and Escherichia coli ATCC 25922 were included with each run.

[4] = test system: pneumococci (5 quinolone susceptible and 1 resistant strains); assay: Post-antibiotic effect (PAE) testing; format: cell-based, Streptococcus pneumoniae
Experimental: The post-antibiotic effect (PAE) (Craig, et al., V. Lorian (ed.) Antibiotics in Laboratory Medicine, Williams and Wilkins, Baltimore, pages 296-399, 1996) was determined by the viable plate count method, using Mueller-Hinton broth (MHB) supplemented with 5% lysed horse blood when testing pneumococci. […] Additionally, the one quinolone resistant strain was exposed at quinolone concentrations 5×MIC. Tubes containing 5 ml broth with antibiotic were inoculated with approximately 5×10^6 cfu/ml. Growth controls with inoculum but no antibiotic were included with each experiment. Tubes were placed in a shaking water bath at 35° C. for 1 h. At the end of the exposure period, cultures were diluted 1:1000 to remove antibiotic.
Viability counts were determined before exposure and immediately after dilution (0 h), and then every 2 h until tube turbidity reached a #1 McFarland standard. Inocula were prepared by suspending growth from an overnight blood agar plate in broth. The broth was incubated at 35° C. for 2-4 h in a shaking water bath until turbidity matched a #1 McFarland standard, and checked for viability by plate counts (Spangler, et al., Antimicrob. Agents Chemother. 41:2173-9176, 1997; Spangler, et al., Antimicrob. Agents Chemother. 42:1253-1255, 1998).
The PAE was defined as PAE=T-C; T=time required for viability counts of an antibiotic-exposed culture to increase by 1 log10 above counts immediately after dilution; C=corresponding time for growth control. For each experiment, viability counts (log10 cfu/ml) were plotted against time, and results expressed as the mean of two separate assays±S D (Craig, et al., V. Lorian (ed), Antibiotics in Laboratory Medicine, Williams and Wilkins, Baltimore, pages 296-329, 1996).

[5] = all 207 strains (64 penicillin susceptible, 68 intermediate, 75 resistant)
[6] = 5×MIC, quinolone resistant strain
[7] = 10×MIC for 1 h, range over 5 quinolone susceptible strains

SMILES: C[C@H]1COc2c(N3CCN(C)CC3)c(F)cc3c(=O)c(C(=O)O)cn1c23 [Levofloxacin, levofloxacin]
- MIC50 ([1]; Penicillin I strains): 1 µg/mL (≈ 2.77 µM)
- MIC90 ([1]; Penicillin I strains): 2 µg/mL (≈ 5.53 µM)
- MIC ([1]; Penicillin I strains): 0.5 to 4 µg/mL (≈ 1.38 to 11.1 µM)
- MIC50 ([1]; Penicillin R strains): 1 µg/mL (≈ 2.77 µM)
- MIC90 ([1]; Penicillin R strains): 2 µg/mL (≈ 5.53 µM)
- MIC ([1]; Penicillin R strains): 1 to 2 µg/mL (≈ 2.77 to 5.53 µM)
- MIC50 ([1]; Penicillin S strains): 1 µg/mL (≈ 2.77 µM)
- MIC90 ([1]; Penicillin S strains): 2 µg/mL (≈ 5.53 µM)
- MIC ([1]; Penicillin S strains): 0.125 to 4 µg/mL (≈ 0.346 to 11.1 µM)
- MIC50 [1, 5]: 1 µg/mL (≈ 2.77 µM)
- MIC90 [1, 5]: 2 µg/mL (≈ 5.53 µM)
- MIC (pneumococcal strains; strain 1 (S) penicillin susceptible): 2 µg/mL (≈ 5.53 µM)
- MIC (pneumococcal strains; strain 2 (S) penicillin susceptible): 1 µg/mL (≈ 2.77 µM)
- MIC (pneumococcal strains; strain 3 (S) penicillin susceptible, quinolone-resistant): 32 µg/mL (≈ 88.6 µM)
- MIC (pneumococcal strains; strain 4 (S) penicillin susceptible, quinolone-resistant): 32 µg/mL (≈ 88.6 µM)
- MIC (pneumococcal strains; strain 5 (I) penicillin intermediate): 1 µg/mL (≈ 2.77 µM)
- MIC (pneumococcal strains; strain 6 (I) penicillin intermediate): 2 µg/mL (≈ 5.53 µM)
- MIC (pneumococcal strains; strain 7 (I) penicillin intermediate): 1 µg/mL (≈ 2.77 µM)
- MIC (pneumococcal strains; strain 8 (I) penicillin intermediate): 1 µg/mL (≈ 2.77 µM)
- MIC (pneumococcal strains; strain 9 (R) penicillin resistant): 2 µg/mL (≈ 5.53 µM)
- MIC (pneumococcal strains; strain 10 (I)): 2 µg/mL (≈ 5.53 µM)
- MIC (pneumococcal strains; strain 11 (R) penicillin resistant): 1 µg/mL (≈ 2.77 µM)
- MIC (pneumococcal strains; strain 12 (R) penicillin resistant): 2 µg/mL (≈ 5.53 µM)
- number of strains with lower MICs in the presence of reserpine [2]: 7 strains
- Number of dilutions decrease after incubation with reserpine ([2]; strain 7): 2X
- Number of dilutions decrease after incubation with reserpine ([2]; strain 11): 4X
- Number of dilutions decrease after incubation with reserpine ([2]; strain 12): 2X
- Number of dilutions decrease after incubation with reserpine ([2]; strain 23): 2X
- Number of dilutions decrease after incubation with reserpine ([2]; strain 25): 2x X
- Number of dilutions decrease after incubation with reserpine ([2]; strain 26): 2x X
- Number of dilutions decrease after incubation with reserpine ([2]; strain 28): 4x X
- MIC50 [3]: 1 µg/mL (≈ 2.77 µM)
- MIC Range [3]: 0.25 to 4.0 µg/mL
- PAE [4, 6]: 1.3 h
- PAE [4, 7]: 0.9 to 2.3 h

SMILES: O=C(O)c1cn(C2CC2)c2cc(N3CCNCC3)c(F)cc2c1=O [Ciprofloxacin, ciprofloxacin]
- number of strains with lower MICs in the presence of reserpine [2]: 23 strains
- Number of dilutions decrease after incubation with reserpine ([2]; strain 1): 2x X
- Number of dilutions decrease after incubation with reserpine ([2]; strain 2): 8x X
- Number of dilutions decrease after incubation with reserpine ([2]; strain 6): 2X
- Number of dilutions decrease after incubation with reserpine ([2]; strain 8): 2X
- Number of dilutions decrease after incubation with reserpine ([2]; strain 9): 8X
- Number of dilutions decrease after incubation with reserpine ([2]; strain 10): 2X
- Number of dilutions decrease after incubation with reserpine ([2]; strain 11): 16X
- Number of dilutions decrease after incubation with reserpine ([2]; strain 13): 2X
- Number of dilutions decrease after incubation with reserpine ([2]; strain 18): 2X
- Number of dilutions decrease after incubation with reserpine ([2]; strain 19): 2X
- Number of dilutions decrease after incubation with reserpine ([2]; strain 20): 2X
- Number of dilutions decrease after incubation with reserpine ([2]; strain 21): 2X
- Number of dilutions decrease after incubation with reserpine ([2]; strain 22): 2X
- Number of dilutions decrease after incubation with reserpine ([2]; strain 23): 8X
- Number of dilutions decrease after incubation with reserpine ([2]; strain 24): 2x X
- Number of dilutions decrease after incubation with reserpine ([2]; strain 28): 8x X
- MIC50 [3]: 1 µg/mL (≈ 3.02 µM)
- MIC Range [3]: 0.25 to 8.0 µg/mL
- PAE [4, 6]: 3.7 h
- PAE [4, 7]: 0.5 to 1.5 h
- PAE ([4]; 10×MIC, quinolone resistant strain): 6.3 h
